Data reported in PubChem BioAssay (NCI).
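Briefly, cells in 96-well plates were exposed to five compound concentrations for 48 h, and endpoints were estimated by linear interpolation. GI50: concentration for 50% inhibition of growth. TGI: total growth inhibition.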

Key:
Assay in all cases: NCI-60 cell line screen, 48 h
HL-60(TB) leukemia = tested on: HL-60(TB) leukemia
BT-549 breast = tested on: BT-549 breast
IGROV1 ovarian = tested on: IGROV1 ovarian
SF-268 CNS = tested on: SF-268 CNS
HOP-92 NSCLC = tested on: HOP-92 NSCLC
CAKI-1 renal = tested on: CAKI-1 renal
A498 renal = tested on: A498 renal
SK-OV-3 ovarian = tested on: SK-OV-3 ovarian
HOP-62 NSCLC = tested on: HOP-62 NSCLC

Compound	TGI (HL-60(TB) leukemia)	TGI (BT-549 breast)	TGI (IGROV1 ovarian)	TGI (SF-268 CNS)	TGI (HOP-92 NSCLC)	TGI (CAKI-1 renal)	TGI (A498 renal)	TGI (SK-OV-3 ovarian)	TGI (HOP-62 NSCLC)	GI50 (HL-60(TB) leukemia)	GI50 (BT-549 breast)	GI50 (IGROV1 ovarian)	GI50 (HOP-62 NSCLC)	GI50 (SF-268 CNS)	GI50 (HOP-92 NSCLC)	GI50 (CAKI-1 renal)	GI50 (A498 renal)	GI50 (SK-OV-3 ovarian)
CCN(CC)c1ccc(/C=C2\CCc3ccc([N+](=O)[O-])cc3C2=O)cc1	5.33 µM	> 100 µM	> 100 µM	> 100 µM	> 100 µM	> 100 µM	69.9 µM	> 100 µM										
O=C(OC1CN2CCC1CC2)N(c1ccccc1)c1ccccc1 (centres undefined)	> 100 µM	> 100 µM	> 100 µM	> 100 µM	> 100 µM	> 100 µM	78.5 µM	> 100 µM	> 100 µM									
O=C1CSC(c2ccc([N+](=O)[O-])cc2)N1c1ccc(-c2ccc(-n3c(-c4ccccc4)nc4ccccc4c3=O)cc2)cc1 (centres undefined)	> 100 µM	> 100 µM		> 100 µM	> 100 µM	> 100 µM	> 100 µM	> 100 µM	> 100 µM									
CCCCCCCCCCCCCCCCCCNC(=S)/N=C/c1c(O)c2ccccc2[nH]c1=O	17.9 µM	38 µM	21.2 µM	29.5 µM	32.7 µM	31.6 µM	36.9 µM	49.1 µM	33 µM									
CN(CCCNC(=O)c1nn(C)c2c1Cc1ccccc1-2)CCCNC(=O)c1nn(C)c2c1Cc1ccccc1-2	10.8 µM	47.2 µM	35 µM	37.9 µM	35 µM	35.5 µM	31.7 µM	34.1 µM	26.8 µM									
COc1cc(C2C3=C(CCCC3=O)N(c3ccc(C)cc3)C3=C2C(=O)CCC3)c([N+](=O)[O-])cc1OC	> 100 µM	> 100 µM	> 100 µM	> 100 µM	> 100 µM	> 100 µM	> 100 µM	> 100 µM										
Cc1cc(OCCOCCC(F)(F)P(=O)(O)O)ccc1CCc1cnc2c(N)nc3cc(CCC(=O)O)ccc3c2c1	> 100 µM	> 100 µM	> 100 µM	> 100 µM	> 100 µM	> 100 µM	> 100 µM	> 100 µM	> 100 µM	> 100 µM	> 100 µM	> 100 µM	> 100 µM	> 100 µM	6.61 µM	72.7 µM	26.2 µM	> 100 µM
CN1CCc2c(sc3ncn(Nc4ccc(Cl)cc4)c(=N)c23)C1	> 100 µM	> 100 µM	> 100 µM	> 100 µM	> 100 µM	> 100 µM	> 100 µM	> 100 µM	> 100 µM									
S=c1nc(N/N=C/c2cccs2)c2cn[nH]c2[nH]1	> 100 µM	> 100 µM	75.1 µM	> 100 µM	> 100 µM	42.9 µM	> 100 µM	> 100 µM	69 µM									
Cc1c(C)c(C)c(-n2c(=O)n(C)c(=O)n2-c2cc(C(C)(C)C)cc(C(C)(C)C)c2O)c(C)c1C	11.4 µM	28.1 µM	22 µM	27.7 µM	17.6 µM	28.5 µM	26.3 µM	25.2 µM	28 µM									
C=CC(=O)N1C/C(=C\c2ccc([N+](=O)[O-])cc2)C(=O)/C(=C/c2ccc([N+](=O)[O-])cc2)C1	> 100 µM	0.567 µM	0.419 µM	0.338 µM	2.98 µM	0.801 µM	0.807 µM	2.85 µM	0.375 µM									
COC(=O)CNC(=O)CCC(C)[C@H]1CCC2C3C(C[C@H](OC(C)=O)[C@@]21C)[C@@]1(C)CCC2(C[C@H]1C[C@H]3OC(C)=O)OOC1(CC[C@]3(C)C4C[C@H](OC(C)=O)[C@@]5(C)C(CC[C@@H]5C(C)CCC(=O)NCC(=O)OC)C4[C@H](OC(C)=O)C[C@@H]3C1)OO2 (some centres undefined)	2.37 µM	> 50 µM	1.91 µM	16.1 µM	2.64 µM	6.96 µM	39.8 µM	13.9 µM	1.52 µM									
CC(=O)O[C@H]1C(=O)[C@@]2(C)[C@H]([C@H](OC(=O)c3ccccc3)[C@]3(O)C[C@H](OC(=O)[C@H](O)[C@@H](NC(=O)c4ccccc4)c4cccc(N(C)C)c4)C(C)=C1C3(C)C)[C@]1(OC(C)=O)CO[C@@H]1C[C@@H]2O	0.0414 µM	3.51 µM	> 75 µM	> 75 µM	> 75 µM	> 75 µM	9.02 µM	> 28.6 µM	> 18.3 µM									
Cc1cc2n[n+]3[n-]cc(-c4ccccc4)n3c2cc1[N+](=O)[O-]	> 100 µM	> 100 µM	> 100 µM		> 100 µM	> 100 µM	> 100 µM	> 100 µM	> 100 µM									
O=c1[nH]nc(Cc2ccccc2)n1/N=C/c1cccnc1	> 100 µM	> 100 µM	> 100 µM	> 100 µM	> 100 µM	> 100 µM	> 100 µM		> 100 µM									
